The results in this text go back to patent US9493446B2, “Orexin receptor antagonists which are [ortho bi-(hetero-)aryl]-[2-(meta bi-(hetero-)aryl)-pyrrolidin-1-yl]-methanone derivatives” (Actelion Pharmaceuticals Ltd, priority 2012, dated 2016).

One may read the IC50 as the concentration needed to halve the response being measured.

One experiment has as its target orexin-1 (Homo sapiens (Human), UniProt O43613). The experiment can be described thus: Intracellular calcium measurement (FLIPR), CHO cells expressing human orexin-1 receptor, 3 nM orexin-A. In kind it is cell-based. Conditions: CHO cells expressing human orexin-1 receptor, FLIPR, 3 nM orexin-A; geometric mean if determined several times; read-out: IC50 OX1. In a few lines: (§1)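 Antagonist is added 120 min before agonist. Fluo-4 AM-loaded CHO cells carry human orexin-1 or orexin-2 receptor, and calcium is read by FLIPR.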
A general note: Calcium flux is commonly read through the fluorescence of an indicator in the cells.

In another experiment the target is human orexin-2 receptor (Homo sapiens (Human), UniProt O43614). The experiment can be described thus: Intracellular calcium measurement (FLIPR), CHO cells expressing human orexin-2 receptor, 3 nM orexin-A. In kind it is cell-based. Conditions: read-out: IC50 OX2. In a few lines: as §1
Where [1] appears, read: CHO cells expressing human orexin-2 receptor, FLIPR, 3 nM orexin-A, geometric mean if determined several times.

Where two headings read alike, the source gives them in different places.

Sequence of human orexin-2 receptor (O43614 whole entry): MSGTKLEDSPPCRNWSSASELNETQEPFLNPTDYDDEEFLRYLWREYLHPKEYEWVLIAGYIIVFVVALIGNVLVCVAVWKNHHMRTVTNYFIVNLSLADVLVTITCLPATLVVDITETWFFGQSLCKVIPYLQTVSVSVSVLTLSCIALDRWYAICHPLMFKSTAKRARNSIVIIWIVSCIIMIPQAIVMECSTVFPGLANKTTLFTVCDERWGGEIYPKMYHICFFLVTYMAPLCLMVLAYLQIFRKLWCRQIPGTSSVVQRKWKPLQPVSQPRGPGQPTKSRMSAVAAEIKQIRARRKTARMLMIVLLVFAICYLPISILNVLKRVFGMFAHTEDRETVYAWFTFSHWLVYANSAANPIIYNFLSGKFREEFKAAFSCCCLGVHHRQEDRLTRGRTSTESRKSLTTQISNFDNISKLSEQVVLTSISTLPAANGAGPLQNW
Sequence of orexin-1 (O43613 whole entry): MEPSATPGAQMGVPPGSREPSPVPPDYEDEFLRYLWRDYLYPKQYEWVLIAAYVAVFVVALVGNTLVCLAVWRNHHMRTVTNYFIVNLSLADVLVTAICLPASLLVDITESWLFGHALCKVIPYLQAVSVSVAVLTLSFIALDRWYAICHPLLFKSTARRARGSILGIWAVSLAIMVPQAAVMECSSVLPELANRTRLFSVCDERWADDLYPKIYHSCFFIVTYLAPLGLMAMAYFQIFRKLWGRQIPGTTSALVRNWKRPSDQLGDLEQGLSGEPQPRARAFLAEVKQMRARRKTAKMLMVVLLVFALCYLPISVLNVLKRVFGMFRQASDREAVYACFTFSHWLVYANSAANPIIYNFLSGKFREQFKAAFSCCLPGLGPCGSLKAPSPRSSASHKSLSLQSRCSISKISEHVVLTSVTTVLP

In the case of `Cc1cccc(-n2nccn2)c1C(=O)N1CCC[C@H]1c1nc(-c2ccccc2OC(F)(F)F)no1` [compound 149, (2-Methyl-6-[1,2,3]triazol-2-yl-phenyl)-{(S)-2-[3-(2-trifluoromethoxy-phenyl)-[1,2,4]oxadiazol-5-yl]-pyrrolidin-1-yl}-methanone], the IC50 on orexin-1 turned out to be 184 nM; on human orexin-2 receptor (setting [1]) it was 85 nM.

As to `O=C(c1cc(OC(F)(F)F)ccc1-n1nccn1)N1CCC[C@H]1c1nc(-c2ccccc2OC(F)(F)F)no1` [compound 150, (2-[1,2,3]Triazol-2-yl-5-trifluoromethoxy-phenyl)-{(S)-2-[3-(2-trifluoromethoxy-phenyl)-[1,2,4]oxadiazol-5-yl]-pyrrolidin-1-yl}-methanone], the IC50 turned out to be 457 nM at orexin-1 and 341 nM on human orexin-2 receptor (setting [1]).

For `COc1ccc(-n2nccn2)c(C(=O)N2CCC[C@H]2c2nc(-c3ccccc3OC(F)(F)F)no2)c1` [compound 151, (5-Methoxy-2-[1,2,3]triazol-2-yl-phenyl)-{(S)-2-[3-(2-trifluoromethoxy-phenyl)-[1,2,4]oxadiazol-5-yl]-pyrrolidin-1-yl}-methanone], the IC50 on orexin-1 and at human orexin-2 receptor (setting [1]) was 27 nM throughout.

For `COc1ccc(-c2ccccc2)c(C(=O)N2CCC[C@H]2c2nc(-c3ccccc3OC(F)(F)F)no2)c1` [compound 152, (4-Methoxy-biphenyl-2-yl)-{(S)-2-[3-(2-trifluoromethoxy-phenyl)-[1,2,4]oxadiazol-5-yl]-pyrrolidin-1-yl}-methanone], the results for the IC50 on orexin-1 and at human orexin-2 receptor (setting [1]) were 9 nM and 35 nM, respectively.

For the compound `O=C(c1[nH]cnc1-c1ccccc1)N1CCC[C@H]1c1nc(-c2ccccc2OC(F)(F)F)no1` [compound 153, (5-Phenyl-3H-imidazol-4-yl)-{(S)-2-[3-(2-trifluoromethoxy-phenyl)-[1,2,4]oxadiazol-5-yl]-pyrrolidin-1-yl}-methanone], the IC50 is 781 nM at orexin-1 and 460 nM on human orexin-2 receptor (setting [1]).

Consider `O=C(c1cc(F)ccc1-n1nccn1)N1CCC[C@H]1c1nc(-c2ccccc2OC(F)(F)F)no1` [compound 155, (5-Fluoro-2-[1,2,3]triazol-2-yl-phenyl)-{(S)-2-[3-(2-trifluoromethoxy-phenyl)-[1,2,4]oxadiazol-5-yl]-pyrrolidin-1-yl}-methanone], for which the IC50 at orexin-1 came to 174 nM; at human orexin-2 receptor (setting [1]), 43 nM.

Consider `COc1ccc(-n2cccn2)c(C(=O)N2CCC[C@H]2c2nc(-c3ccccc3OC(F)(F)F)no2)c1` [compound 157, (5-Methoxy-2-pyrazol-1-yl-phenyl)-{(S)-2-[3-(2-trifluoromethoxy-phenyl)-[1,2,4]oxadiazol-5-yl]-pyrrolidin-1-yl}-methanone], for which the IC50 on orexin-1 amounted to 99 nM; at human orexin-2 receptor (setting [1]), 73 nM.

Take `Cc1ccc(-n2nccn2)c(C(=O)N2CCC[C@H]2c2nc(-c3ccccc3OC(F)(F)F)no2)n1` [compound 159, (6-Methyl-3-[1,2,3]triazol-2-yl-pyridin-2-yl)-{(S)-2-[3-(2-trifluoromethoxy-phenyl)-[1,2,4]oxadiazol-5-yl]-pyrrolidin-1-yl}-methanone]: the IC50 at orexin-1 came to 88 nM; on human orexin-2 receptor (setting [1]), 71 nM.

`Cc1ccc(-n2cccn2)c(C(=O)N2CCC[C@H]2c2nc(-c3ccccc3OC(F)(F)F)no2)n1` [compound 160, (6-Methyl-3-pyrazol-1-yl-pyridin-2-yl)-{(S)-2-[3-(2-trifluoromethoxy-phenyl)-[1,2,4]oxadiazol-5-yl]-pyrrolidin-1-yl}-methanone]: the IC50 was 238 nM on orexin-1 and 212 nM at human orexin-2 receptor (setting [1]).

Consider `O=C(c1cc(F)c(F)cc1-n1nccn1)N1CCC[C@H]1c1nc(-c2ccccc2OC(F)(F)F)no1` [compound 161, (4,5-Difluoro-2-[1,2,3]triazol-2-yl-phenyl)-{(S)-2-[3-(2-trifluoromethoxy-phenyl)-[1,2,4]oxadiazol-5-yl]-pyrrolidin-1-yl}-methanone], for which the values for the IC50 at orexin-1 and at human orexin-2 receptor (setting [1]) were 751 nM and 204 nM, respectively.

`O=C(c1ccc(F)cc1-n1cccn1)N1CCC[C@H]1c1nc(-c2ccccc2OC(F)(F)F)no1` [compound 162, (4-Fluoro-2-pyrazol-1-yl-phenyl)-{(S)-2-[3-(2-trifluoromethoxy-phenyl)-[1,2,4]oxadiazol-5-yl]-pyrrolidin-1-yl}-methanone]: the IC50 at orexin-1 amounted to 818 nM; at human orexin-2 receptor (setting [1]) it was 347 nM.

As to `O=C(c1ccc(F)cc1-n1nccn1)N1CCC[C@H]1c1nc(-c2ccccc2OC(F)(F)F)no1` [compound 163, (4-Fluoro-2-[1,2,3]triazol-2-yl-phenyl)-{(S)-2-[3-(2-trifluoromethoxy-phenyl)-[1,2,4]oxadiazol-5-yl]-pyrrolidin-1-yl}-methanone], the values for the IC50 on orexin-1 and on human orexin-2 receptor (setting [1]) were 495 nM and 87 nM, respectively.

Turning to `O=C(c1cccc(F)c1-n1cccn1)N1CCC[C@H]1c1nc(-c2ccccc2OC(F)(F)F)no1` [compound 164, (3-Fluoro-2-pyrazol-1-yl-phenyl)-{(S)-2-[3-(2-trifluoromethoxy-phenyl)-[1,2,4]oxadiazol-5-yl]-pyrrolidin-1-yl}-methanone], the IC50 at orexin-1 came to 333 nM; on human orexin-2 receptor (setting [1]), 171 nM.

As to `O=C(c1cccc(F)c1-n1nccn1)N1CCC[C@H]1c1nc(-c2ccccc2OC(F)(F)F)no1` [compound 165, (3-Fluoro-2-[1,2,3]triazol-2-yl-phenyl)-{(S)-2-[3-(2-trifluoromethoxy-phenyl)-[1,2,4]oxadiazol-5-yl]-pyrrolidin-1-yl}-methanone], the IC50 on orexin-1 is 286 nM; on human orexin-2 receptor (setting [1]), 79 nM.

Turning to `O=C(c1cc(F)ccc1-c1ccn[nH]1)N1CCC[C@H]1c1nc(-c2ccccc2OC(F)(F)F)no1` [compound 167, [5-Fluoro-2-(2H-pyrazol-3-yl)-phenyl]-{(S)-2-[3-(2-trifluoromethoxy-phenyl)-[1,2,4]oxadiazol-5-yl]-pyrrolidin-1-yl}-methanone], the IC50 was found to be 114 nM on orexin-1 and 43 nM on human orexin-2 receptor (setting [1]).

Regarding `O=C(c1cccc(F)c1-c1ccn[nH]1)N1CCC[C@H]1c1nc(-c2ccccc2OC(F)(F)F)no1` [compound 168, [3-Fluoro-2-(2H-pyrazol-3-yl)-phenyl]-{(S)-2-[3-(2-trifluoromethoxy-phenyl)-[1,2,4]oxadiazol-5-yl]-pyrrolidin-1-yl}-methanone], the IC50 stood at 27 nM on orexin-1 and 10 nM on human orexin-2 receptor (setting [1]).

As for `COc1ccc(C(=O)N2CCC[C@H]2c2nc(-c3ccccc3OC(F)(F)F)no2)c(-n2nccn2)c1` [compound 169, (4-Methoxy-2-[1,2,3]triazol-2-yl-phenyl)-{(S)-2-[3-(2-trifluoromethoxy-phenyl)-[1,2,4]oxadiazol-5-yl]-pyrrolidin-1-yl}-methanone], the IC50 came to 137 nM on orexin-1 and 90 nM at human orexin-2 receptor (setting [1]).

`Cc1cc(C)c(-n2nccn2)c(C(=O)N2CCC[C@H]2c2nc(-c3ccccc3OC(F)(F)F)no2)c1` [compound 170, (3,5-Dimethyl-2-[1,2,3]triazol-2-yl-phenyl)-{(S)-2-[3-(2-trifluoromethoxy-phenyl)-[1,2,4]oxadiazol-5-yl]-pyrrolidin-1-yl}-methanone]: the IC50 stood at 55 nM at orexin-1 and 35 nM at human orexin-2 receptor (setting [1]).

On to `O=C(c1ccccc1-c1ncco1)N1CCC[C@H]1c1nc(-c2ccccc2OC(F)(F)F)no1` [compound 171, (2-Oxazol-2-yl-phenyl)-{(S)-2-[3-(2-trifluoromethoxy-phenyl)-[1,2,4]oxadiazol-5-yl]-pyrrolidin-1-yl}-methanone], for which the half-maximal inhibitory concentration (IC50) at orexin-1 came out at 104 nM; at human orexin-2 receptor (setting [1]), 30 nM.

Turning to `O=C(c1ccc(Cl)cc1-n1nccn1)N1CCC[C@H]1c1nc(-c2ccccc2OC(F)(F)F)no1` [compound 172], the IC50 on orexin-1 was found to be 56 nM; at human orexin-2 receptor it was 18 nM.

With `O=C(c1ccc(C(F)(F)F)cc1-n1nccn1)N1CCC[C@H]1c1nc(-c2ccccc2OC(F)(F)F)no1` [compound 173, (2-[1,2,3]Triazol-2-yl-4-trifluoromethyl-phenyl)-{(S)-2-[3-(2-trifluoromethoxy-phenyl)-[1,2,4]oxadiazol-5-yl]-pyrrolidin-1-yl}-methanone], the IC50 worked out at 132 nM at orexin-1 and 116 nM on human orexin-2 receptor (setting [1]).

Take `COc1cc(C(=O)N2CCC[C@H]2c2nc(-c3ccccc3OC(F)(F)F)no2)c(-n2nccn2)cc1F` [compound 174, (4-Fluoro-5-methoxy-2-[1,2,3]triazol-2-yl-phenyl)-{(S)-2-[3-(2-trifluoromethoxy-phenyl)-[1,2,4]oxadiazol-5-yl]-pyrrolidin-1-yl}-methanone]: the IC50 at orexin-1 was determined as 174 nM; on human orexin-2 receptor (setting [1]), 70 nM.

In the case of `Cc1ccc(-c2ncco2)c(C(=O)N2CCC[C@H]2c2nc(-c3ccccc3OC(F)(F)F)no2)c1` [compound 175, (5-Methyl-2-oxazol-2-yl-phenyl)-{(S)-2-[3-(2-trifluoromethoxy-phenyl)-[1,2,4]oxadiazol-5-yl]-pyrrolidin-1-yl}-methanone], the IC50 on orexin-1 worked out at 14 nM; on human orexin-2 receptor (setting [1]) it was 12 nM.

Regarding `Cc1cc(F)cc(C(=O)N2CCC[C@H]2c2nc(-c3ccccc3OC(F)(F)F)no2)c1-n1nccn1` [compound 176, (5-Fluoro-3-methyl-2-[1,2,3]triazol-2-yl-phenyl)-{(S)-2-[3-(2-trifluoromethoxy-phenyl)-[1,2,4]oxadiazol-5-yl]-pyrrolidin-1-yl}-methanone], the values for the IC50 at orexin-1 and at human orexin-2 receptor (setting [1]) were 258 nM and 151 nM, respectively.

With `COc1cc(C(=O)N2CCC[C@H]2c2nc(-c3ccccc3OC(F)(F)F)no2)c(-n2nccn2)cc1OC` [compound 177, (4,5-Dimethoxy-2-[1,2,3]triazol-2-yl-phenyl)-{(S)-2-[3-(2-trifluoromethoxy-phenyl)-[1,2,4]oxadiazol-5-yl]-pyrrolidin-1-yl}-methanone], the values for the IC50 at orexin-1 and on human orexin-2 receptor (setting [1]) were 126 nM and 140 nM, respectively.

For `O=C(c1ccccc1-n1nccn1)N1CCC[C@H]1c1nc(-c2ccccc2C(F)(F)F)no1` [compound 178, (2-[1,2,3]Triazol-2-yl-phenyl)-{(S)-2-[3-(2-trifluoromethyl-phenyl)-[1,2,4]oxadiazol-5-yl]-pyrrolidin-1-yl}-methanone], the figures for the half-inhibitory concentration (IC50) at orexin-1 and on human orexin-2 receptor (setting [1]) were 549 nM and 132 nM, respectively.
